From patent publication US8372412B2, “Bioassay and peptides for use therein” (Rapid Biosensor Systems Limited, priority 2005, dated 2013)
Entries after “also recorded” stand apart in the source; their conditions may differ.

Assays:
[1] = system: antisera (from rabbit) to the p3 18-mer (SEQ ID 11); test: Targeted Epitope ELISA (competitive ELISA against plate-coated p3 18-mer P779); assay type: binding; conditions: for binding to the antisera relative to the p3 18-mer: competitive ELISA as before, 6-mers and re-tested 9-mer P782-10
Procedure: (§1) These peptides, along with the p3 18-mer (SEQ ID 11) were screened against antisera (from rabbit) to the p3 18-mer (SEQ ID 11). The screen utilized the competitive ELISA (Enzyme-linked immunosorbant assay) technique, which was used to assess the relative binding affinities of the 9-mer peptides to the 18-mer peptide.
(§2) Briefly, the assay involved binding (coating) the p3 18-mer (P779, SEQ ID 11) to ELISA plates, followed by incubation with variables amounts of competing ligand (9-mers, SEQ ID 1-10) with the antisera (1:250 dilution). The level of binding of the antisera to p3 18-mer (P779, SEQ ID 11) was indicated by treatment with goat anti-rabbit peroxidase conjugated antibody and then by addition of a chromogenic substrate ABTS (2,2-azino-di-[3-ethylbenzthiazoline sulphonate]) and hydrogen peroxide where upon a green colour developed which was recorded as an optical density (absorbance) on a plate reader. The colour development is proportional to the level of binding of the primary antisera bound to the plate.
A test ELISA was performed in order to ascertain the concentrations of coating peptide and competing peptides for the ELISA experiments, comprising a competitive ELISA of 9-mer P782-1 ([…])—SEQ ID 1—against 18-mer P779 ([…])—SEQ ID 11 (Mustafa, A. S. et al, supra). This 9-mer was chosen as it also overlaps with the p2 18-mer ([…])—SEQ ID 12. […] ELISA plates were coated with 2 μM solution of p3 18-mer (P779)—SEQ ID 11—and used 500 μM solutions of competing peptides, which were then subjected to four-fold serial dilution.
A Targeted Epitope ELISA was then designed to test the importance of the C-terminal region of the epitope on binding to the antisera. Two 6-mers were synthesized, P782-11 (GNNSPA)—SEQ ID 13—and P782-12 (NNSPAV)—SEQ ID 14, which are truncated forms of their respective 9-mers and subjected these to competitive ELISA as before and also re-tested the 9-mer P782-10 (SEQ ID 10) identified as a significant epitope in the Epitope Mapping ELISA.

[2] = system: antisera (from rabbit) to the p3 18-mer (SEQ ID 11); test: Epitope Mapping ELISA (competitive ELISA against plate-coated p3 18-mer P779); assay type: binding; conditions: plates coated with 2 μM P779, competing peptides 500 μM, four-fold serial dilution, antisera 1:250
Procedure: as §1, §2
A test ELISA was performed in order to ascertain the concentrations of coating peptide and competing peptides for the ELISA experiments, comprising a competitive ELISA of 9-mer P782-1 ([…])—SEQ ID 1—against 18-mer P779 ([…])—SEQ ID 11 (Mustafa, A. S. et al, supra). This 9-mer was chosen as it also overlaps with the p2 18-mer ([…])—SEQ ID 12. […]

[3] = Heat stability of peptide variants; assay type: physicochemical; conditions: C-terminal variants of SGGNNSPA-X; no method or data given

| Substance | binding to the antisera relative to the p3 18-mer [1] | binding to the antisera relative to the p3 18-mer [2] | other results |
| --- | --- | --- | --- |
| GNNSPA (listed as Mycobacterium tuberculosis) [P782-11] | did not bind to the antisera |  |  |
| NNSPAV (listed as Mycobacterium tuberculosis) [P782-12] |  |  | binds to the antisera less tightly relative to either 9-mer P782-10 or 18-mer P779 ([1]; competitive ELISA, relative binding affinity): 1.99 fold |
| QSGGNNSPA (listed as Mycobacterium tuberculosis) [P782-9] |  | no significant binding |  |
| SGGNNSPAA (Modification (at position 9) of native Mycobacterium tuberculosis sequence) [SEQ ID 15] |  |  | heat stability [3]: particularly good Leu-heat stability; also recorded: increased heat stability |
| SGGNNSPAV (listed as Mycobacterium tuberculosis) [P782-10] | bound to the antisera as tightly as the p3 18-mer peptide P779 | bound to the antisera as tightly as the p3 18-mer peptide |  |
